Experimental data from patent US9526707B2, “Methods for treating or preventing neuroinflammation or autoimmune diseases” (priority 2007, dated 2016).
“Also recorded” adds a separate entry of the source. Counter-ions that a name gives are not always drawn.

Key:
[1] = system: Experimental Autoimmune Encephalomyelitis (EAE) in C57BL/6 mice; experiment: Experimental Autoimmune Encephalomyelitis (EAE) model, treatment started two days prior to MOG booster; assay type: in vivo, mouse; details: for effect on EAE clinical symptoms (in words): treated versus control animals, FIG. 1, 3, 4, 5
Description: (§1) One method of showing the efficacy of the disclosed compounds for the treatment of various conditions associated with multiple sclerosis (MS) is its ability to inhibit effects of Experimental Autoimmune Encephalomyelitis (EAE) in laboratory animals. EAE is an animal model for MS, which entails inducing a T-cell-mediated autoimmune disease against myelin basic protein in certain susceptible mammalian species. The EAE model is an appropriate method for studying the inflammation of the brain and spinal cord associated with MS (see Bolton, C. Mult. Scler. 1995; 1(3); 143-9). […] The symptoms that are observed in animals vary from mild gait disturbances and tail atony to complete paralysis and death. These clinical manifestations are given a clinical score ranging from 0 to 5. In the present situation, the scores were based on the following criteria: clinical score 0, no signs; 1.0 limp tail; 2.0 limptail with loss of righting; 3.0 paralysis of single hind limb; 4.0 paralysis of both hind limbs; 5.0 death. Weight loss typically occurs. In animals that survive, spontaneous recovery occurs, accompanied by variable recovery of most motor function. Depending on the species, allergen, and methodology used, animals tested by the EAE model may experience a single (acute EAE) or several (chronic relapsing EAE) attacks.
Experimental autoimmune encephalomyelitis was induced in C57BL/6 mice using the following protocol. Female C57BL/6 mice (6-8 weeks old, N=24) purchased from Jackson Labs, were allowed to acclimate for one week prior to EAE induction. EAE was induced using myelin oligodendrocyte glycoprotein peptide 35-55 (MOG35-55, MEVGWYRSPFSRVVHL-YRNGK). The MOG35-55 injection with Freund's adjuvant was administered subcutaneously adjacent to the hind leg. At the same time, the animals received an injection of pertussis toxin (200 ng in 200 μL phosphate buffered saline (PBS), intraperitoneally), and a second pertussis toxin injection two days later. Mice were given a booster injection of MOG35-55 at day No. 7. Two or three days after the second MOG booster injection, some animals begin to show signs of EAE. The mice are monitored daily using the clinical scoring system described above.
In addition, Didox delayed the onset of the disease in the minority of animals in which it occurred in the Didox treatment group, 7.3 days versus 4.4 days for the control group. […] For example, at the plateau of the clinical condition on day 12 for both the Didox and saline (control) group, represented by the open squares ? the mean clinical score was only 0.45 for the Didox treated cohort compared to a score of 1.9 for the control group. […]

mouse cytokines in serum = experiment: Serum cytokine levels in EAE mice, BioPlex multiplexable bead assay; assay type: in vivo
Procedure: The effect of Didox on cytokine levels was tested. As before, two groups were assembled, one treated with Didox while the other group served as a control and only received saline injections. […] EAE was initiated in all animals depicted at the same time and in an identical manner. All animals were of the same experimental time point at the time of serum collection for cytokine analysis. The Didox treated group experienced a decrease of two points in the EAE clinical score. The analysis of cytokine levels was performed by utilizing a BioPlex® multiplexable bead assay method that simultaneously quantitates mouse cytokines in diverse matrices. In this example the assay was carried out on serum derived from mice of the two groups (Didox and saline treated) at day 12 post MOG induced EAE. Blood was obtained by cardiac aspiration from mice that had been euthanized by CO2. Serum was obtained from clotted blood after centrifugation and stored at […] until assayed. For analysis the serum was diluted and analyzed with the Bio-Plex® assay system. The system utilized beads that are internally labeled with two fluorescent dyes (one for identification of the bead and one for covalent attachment of ligands (or biomolecules). Once an antibody was conjugated to the bead a sample of serum was added and followed by a reporter antibody that is often biotinylated. Following incubation with biotinylated reporter antibody, strepavidin/phycoerythrin was added to make detection possible. The system can profile up to 23 mouse cytokines. Table B indicates the amount of cytokine present (pg/mL) in the serum.

[2] = system: T-cells in splenocytes from C57BL/6 mice; experiment: T-cell proliferation of CD3/CD28 stimulated splenocytes (BrdU); assay type: cell-based, mouse; details: 48 hours with compound, b156: at 100 μM
Procedure: A series of in vitro experiments were conducted to ascertain the effect of Didox on immune function. A mixed splenocyte preparation was divided into two portions, one was stimulated with CD3 and CD28 to specifically activate T-cells while the other served as a control. The splenocytes were isolated from female C57BL/6 mice (6-8 weeks old) and the splenocytes were incubated for 24 hours with CD3/CD28 coated wells, after which Didox was added at varying concentrations. The cells were then incubated for an additional 48 hours. Each well was labeled with BrdU for the last 24 hours and the wells analyzed according to the manufacturer's instructions (Roche-Cell Proliferation Chemiluminescent assay kit). FIG. 7 depicts the results of these experiments. The solid black bars represent un-stimulated splenocytes while the white bars the effect of varying concentrations of Didox on the amount of T-Cells present.

[3] = system: Experimental Autoimmune Encephalomyelitis (EAE) in C57BL/6 mice; experiment: EAE model, treatment started at day 16 after MOG booster (established symptoms); assay type: in vivo, mouse; details: 250 mg/kg intraperitoneally, started 16 days after MOG35-55 booster
Description: as §1, with “attacks. […]” for “attacks.”

[4] = system: activated microglia isolated from rat brain; experiment: Nitrite production by LPS-activated microglia; assay type: cell-based
Description: To further evaluate the beneficial effect of Didox on brain tissue, we analyzed the ability of Didox to attenuate the production of nitrite by activated microglia, which are major contributors to the inflammatory status of EAE mice. Microglia were isolated from rat brain and activated with lipopolysaccharide (LPS) in the presence or absence of increasing concentrations of Didox. […] This observation, together with the attenuation of the T-cell inflammatory response would both contribute to the biological activity of Didox to reduce the severity of EAE.

activated T-cells = experiment: Secretion of inflammatory cytokines by activated T-Cells in vitro; assay type: cell-based
Description: The purpose of this example was to determine whether Didox treatment of T-Cells in vitro produced similar data as was found in vivo using the EAE model.

EAE mice = experiment: EAE model, treatment started when mice had reached clinical stage 2 or more (clinical score); assay type: in vivo, mouse; details: treatment begun at clinical stage 2 or more
[5] = clinical score 0 to 5, treated from day -2 before MOG booster
[6] = serum, treated versus saline treated EAE mice
[7] = 48 hours treatment of activated T-cells, even at 5 μM

NC(=NO)c1ccc(O)c(O)c1 (as salt: hydrochloride) [Example I, 3,4-dihydroxybenzamidoxime]
melting point: 193 °C (dec.)

NC(=O)NO [hydroxyurea, reference compound]
effect on EAE clinical symptoms (in words) [1]: did not show evidence of treating neurodegenerative diseases

O=C(NO)c1ccc(O)c(O)c1 [Didox, N,3,4-trihydroxybenzamide]
Max. Score [1, 5]: 3
Max. Score (mean +/− SEM) [1, 5]: 0.45 +/− 0.31
percentage of animals that exhibited any clinical symptom of the disease ([1]; control 78%): 27%
mean clinical score ([1]; day 12, plateau of the clinical condition, control 1.9): 0.45
onset of the disease ([1]; in the minority of animals in which it occurred, control 4.4 days): 7.3 days
Day of Disease Onset ([1]; treated from day -2 before MOG booster): 7.33 +/− 1.73
effect on EAE clinical symptoms (in words) [1]: reduced the severity and delayed the onset of the clinical manifestation of the disease
IL-4 in serum (mouse cytokines in serum; day 12 post MOG induced EAE, control 0 ± 0): 0 ± 0 pg/mL
IL-2 in serum (mouse cytokines in serum; day 12 post MOG induced EAE, control 2 ± 2): 0.7 ± 0.2 pg/mL
IL-5 in serum (mouse cytokines in serum; day 12 post MOG induced EAE, control 6 ± 5): 2 ± 1 pg/mL
GM-CSF in serum (mouse cytokines in serum; day 12 post MOG induced EAE, control 7 ± 4): 0.4 ± 0.5 pg/mL
IFN-g in serum (mouse cytokines in serum; day 12 post MOG induced EAE, control 10 ± 3): 3 ± 1 pg/mL
IL-10 in serum (mouse cytokines in serum; day 12 post MOG induced EAE, control 16 ± 7): 3 ± 1 pg/mL
IL-17 in serum (mouse cytokines in serum; day 12 post MOG induced EAE, control 83 ± 29): 2 ± 0.2 pg/mL
TNF-α in serum (mouse cytokines in serum; day 12 post MOG induced EAE, control 219 ± 132): 61 ± 46 pg/mL
IL-12 in serum (mouse cytokines in serum; day 12 post MOG induced EAE, control 559 ± 276): 36 ± 14 pg/mL
reduction for IL-12 (mouse cytokines in serum; [6]): 15 fold
reduction for Il-10 (mouse cytokines in serum; [6]): 5.0 fold
reduction for TNF levels (mouse cytokines in serum; [6]): 3.5 fold
reduction in IL-17 (mouse cytokines in serum; [6]): approximately 35 fold
level of T-Cell proliferation [2]: reduces the level of T-cells to the amount present in un-stimulated cells; also recorded: reduced to that for un-stimulated cells
reduction in average clinical score [3]: more than 50%
nitrite production ([4]; 100 μM treatment): reached base line levels
nitrite production, dose dependence ([4]; increasing concentrations): dose dependent attenuation of nitrite production
secretion of IFNγ (activated T-cells; 24 hours treatment): does not reduce the levels of these cytokines to background; also recorded: reduced to less than half the level secreted by the untreated activated T-cells
secretion of IL-17 (activated T-cells; 24 hours treatment): does not reduce the levels of these cytokines to background
secretion of IFNγ (activated T-cells; [7]): down to baseline levels
secretion of IL-17 (activated T-cells; [7]): down to baseline levels
decrease in the EAE clinical score (EAE mice): two
